From article PMC8306964 (2021)
Peptide text beside a SMILES is read from it. * marks the point of attachment. OBn = c1ccc(CO*)cc1

What was measured:
[1] = system: dA10-dT10 (DNA, duplex) AAAAAAAAAA/TTTTTTTTTT; assay: photoalkylation (300 nm irradiation), HPLC; conditions: NH4+ (ammonium acetate, 100 mM); covalent; pH 7.0; 15 or 60 min; new broad signal at about 16.5 min
[2] = system: p(dGdC) (DNA, polymer) GC; assay: fluorescence titration, Scatchard (McGhee-von Hippel) fit; conditions: Na+ (sodium cacodylate, 50 mM); pH 7.0, 25 °C, <1% DMSO; n fixed 0.3; polynucleotide as phosphates; error half log unit; per base
[3] = system: dA10-dT10 (DNA, duplex) AAAAAAAAAA/TTTTTTTTTT; assay: HPLC retention shift; conditions: NH4+ (ammonium acetate, 100 mM); pH 7.0; signal about 0.5 min earlier with compound
[4] = system: dG12-dC12 (DNA, duplex) GGGGGGGGGGGG/CCCCCCCCCCCC; assay: HPLC retention shift; conditions: NH4+ (ammonium acetate, 100 mM); pH 7.0; retention retarded by about 0.3 min with compound; no alkylation on irradiation
[5] = system: p(dAdT) (DNA, polymer) AT; assay: fluorescence titration, Scatchard (McGhee-von Hippel) fit; conditions: Na+ (sodium cacodylate, 50 mM); pH 7.0, 25 °C, <1% DMSO; n fixed 0.3; polynucleotide as phosphates; error half log unit; per base
[6] = system: pApU (RNA, polymer) A/U; assay: as above; conditions: Na+ (sodium cacodylate, 50 mM); pH 7.0, 25 °C, <1% DMSO; n fixed 0.3; polynucleotide as phosphates; error half log unit; per base

SMILES	binding [1]	log Ka [2]	binding [3]	binding [4]	log Ka [5]	log Ka [6]
CN(C)Cc1cc(C[C@H](NC(=O)[C@H](Cc2c[nH]c3ccccc23)NC(=O)[C@@H](N)Cc2c[nH]c3ccccc23)C(=O)OCc2ccccc2)ccc1O	yes	6.4 log (M^-1)	yes	yes	5.9 log (M^-1)	6.0 log (M^-1)
N[C@@H](Cc1c[nH]c2ccccc12)C(=O)N[C@@H](Cc1c[nH]c2ccccc12)C(=O)N[C@@H](Cc1ccc(O)cc1)C(=O)OCc1ccccc1 (H-Trp-Trp-Tyr-OBn)	–	6.5 log (M^-1)	–	–	–	–
